Tested on: 349418-098-R-PDC complex spheroid viability
Assay: Anticancer human tumor 349418-098-R-PDC patient-derived lung adenocarcinoma cell line growth inhibition [RAS]
Settings: for IC50: curve of first compound; for viability, T/C: stronger effect = lower value
Procedure, shortened: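 Multi-cell-type spheroids: tumor cells plus HUVEC endothelial cells and mesenchymal stem cells. RAS-pathway inhibitors were combined with targeted agents, each dosed in half-log steps down from clinical Cmax, or from 10 microM when Cmax was unknown.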

[1] = second compound 0.00316 µM, first compound 0.0316 µM
[2] = second compound 0.00316 µM, first compound 0.1 µM
[3] = second compound 0.00316 µM, first compound 0.316 µM
[4] = second compound 0.00316 µM, first compound 1 µM
[5] = second compound 0.00316 µM, first compound 3.16 µM
[6] = second compound 0.00316 µM, first compound 10 µM
[7] = second compound 0.01 µM, first compound 0.0316 µM
[8] = second compound 0.01 µM, first compound 0.1 µM
[9] = second compound 0.01 µM, first compound 0.316 µM
[10] = second compound 0.01 µM, first compound 1 µM
[11] = second compound 0.01 µM, first compound 3.16 µM
[12] = second compound 0.01 µM, first compound 10 µM
[13] = second compound 0.0316 µM, first compound 0.0316 µM
[14] = second compound 0.0316 µM, first compound 0.1 µM
[15] = second compound 0.0316 µM, first compound 0.316 µM
[16] = second compound 0.0316 µM, first compound 1 µM
[17] = second compound 0.0316 µM, first compound 3.16 µM
[18] = second compound 0.0316 µM, first compound 10 µM
[19] = second compound 0.1 µM, first compound 0.0316 µM
[20] = second compound 0.1 µM, first compound 0.1 µM
[21] = second compound 0.1 µM, first compound 0.316 µM
[22] = second compound 0.1 µM, first compound 1 µM
[23] = second compound 0.1 µM, first compound 3.16 µM
[24] = second compound 0.1 µM, first compound 10 µM
[25] = second compound 0.316 µM, first compound 0.0316 µM
[26] = second compound 0.316 µM, first compound 0.1 µM
[27] = second compound 0.316 µM, first compound 0.316 µM
[28] = second compound 0.316 µM, first compound 1 µM
[29] = second compound 0.316 µM, first compound 3.16 µM
[30] = second compound 0.316 µM, first compound 10 µM
[31] = second compound 1 µM, first compound 0.0316 µM
[32] = second compound 1 µM, first compound 0.1 µM
[33] = second compound 1 µM, first compound 0.316 µM
[34] = second compound 1 µM, first compound 1 µM
[35] = second compound 1 µM, first compound 3.16 µM
[36] = second compound 1 µM, first compound 10 µM
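Note: spheroids exposed to compound for seven days before viability readout.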

## CC1(O)CCCC1n1c(=O)c(C(F)F)cc2cnc(NC3CCN(S(C)(=O)=O)CC3)nc21 (stereo unspecified) + C=CC(=O)N1CCN(c2nc(OCC3CCCN3C)nc3c(F)c(-c4nc(N)cc(C)c4C(F)(F)F)c(Cl)cc23)C(C)C1
Second compound 0.00316 µM
  IC50: 0.0768 µM
Second compound 0.01 µM
  IC50: 0.102 µM
Second compound 0.0316 µM
  IC50: 0.0847 µM
Second compound 0.1 µM
  IC50: 0.0622 µM
Second compound 0.316 µM
  IC50: 0.0382 µM
Second compound 1 µM
  IC50: 0.0538 µM
[1]
  viability, T/C: 75.1%
[2]
  viability, T/C: 43.2%
[3]
  viability, T/C: 22.5%
[4]
  viability, T/C: 17%
[5]
  viability, T/C: 21.8%
[6]
  viability, T/C: 4.51%
[7]
  viability, T/C: 59.5%
[8]
  viability, T/C: 52.6%
[9]
  viability, T/C: 33.2%
[10]
  viability, T/C: 17.8%
[11]
  viability, T/C: 15.8%
[12]
  viability, T/C: 3.59%
[13]
  viability, T/C: 74.9%
[14]
  viability, T/C: 44.4%
[15]
  viability, T/C: 27.2%
[16]
  viability, T/C: 19.8%
[17]
  viability, T/C: 24.7%
[18]
  viability, T/C: 3.03%
[19]
  viability, T/C: 64.8%
[20]
  viability, T/C: 41%
[21]
  viability, T/C: 18.2%
[22]
  viability, T/C: 25.8%
[23]
  viability, T/C: 24.2%
[24]
  viability, T/C: 2.89%
[25]
  viability, T/C: 52.6%
[26]
  viability, T/C: 43.1%
[27]
  viability, T/C: 20.6%
[28]
  viability, T/C: 24.3%
[29]
  viability, T/C: 18.1%
[30]
  viability, T/C: 3.81%
[31]
  viability, T/C: 60.8%
[32]
  viability, T/C: 36%
[33]
  viability, T/C: 26.4%
[34]
  viability, T/C: 25.4%
[35]
  viability, T/C: 22.6%
[36]
  viability, T/C: 4.16%

## CCN1CCN(Cc2ccc(Nc3ncc(F)c(-c4cc(F)c5nc(C)n(C(C)C)c5c4)n3)nc2)CC1 + C=CC(=O)N1CCN(c2nc(OCC3CCCN3C)nc3c(F)c(-c4nc(N)cc(C)c4C(F)(F)F)c(Cl)cc23)C(C)C1
Second compound 0.00316 µM
  IC50: 0.0173 µM
Second compound 0.01 µM
  IC50: 0.0234 µM
Second compound 0.0316 µM
  IC50: 0.0302 µM
Second compound 0.1 µM
  IC50: 0.0113 µM
Second compound 0.316 µM
  IC50: 0.0208 µM
Second compound 1 µM
  IC50: 0.0141 µM
Second compound 0.00316 µM, first compound 0.00316 µM
  viability, T/C: 77.6%
Second compound 0.00316 µM, first compound 0.01 µM
  viability, T/C: 62.2%
[1]
  viability, T/C: 35.9%
[2]
  viability, T/C: 25.7%
[3]
  viability, T/C: 20.9%
[4]
  viability, T/C: 15.7%
Second compound 0.01 µM, first compound 0.00316 µM
  viability, T/C: 89.4%
Second compound 0.01 µM, first compound 0.01 µM
  viability, T/C: 71.3%
[7]
  viability, T/C: 43.4%
[8]
  viability, T/C: 22.1%
[9]
  viability, T/C: 22.5%
[10]
  viability, T/C: 17%
Second compound 0.0316 µM, first compound 0.00316 µM
  viability, T/C: 78.8%
Second compound 0.0316 µM, first compound 0.01 µM
  viability, T/C: 96.2%
[13]
  viability, T/C: 48.4%
[14]
  viability, T/C: 22.5%
[15]
  viability, T/C: 21.6%
[16]
  viability, T/C: 17.5%
Second compound 0.1 µM, first compound 0.00316 µM
  viability, T/C: 72.8%
Second compound 0.1 µM, first compound 0.01 µM
  viability, T/C: 51.2%
[19]
  viability, T/C: 35.6%
[20]
  viability, T/C: 20.6%
[21]
  viability, T/C: 20.8%
[22]
  viability, T/C: 17.4%
Second compound 0.316 µM, first compound 0.00316 µM
  viability, T/C: 82.8%
Second compound 0.316 µM, first compound 0.01 µM
  viability, T/C: 74%
[25]
  viability, T/C: 35.2%
[26]
  viability, T/C: 34.3%
[27]
  viability, T/C: 25.2%
[28]
  viability, T/C: 18.1%
Second compound 1 µM, first compound 0.00316 µM
  viability, T/C: 61.5%
Second compound 1 µM, first compound 0.01 µM
  viability, T/C: 49.1%
[31]
  viability, T/C: 46.7%
[32]
  viability, T/C: 29%
[33]
  viability, T/C: 22.1%
[34]
  viability, T/C: 19.1%

## C[C@@H](NC(=O)c1ncnc(N)c1Cl)c1ncc(C(=O)Nc2cc(C(F)(F)F)c(Cl)cn2)s1 + C=CC(=O)N1CCN(c2nc(OCC3CCCN3C)nc3c(F)c(-c4nc(N)cc(C)c4C(F)(F)F)c(Cl)cc23)C(C)C1
Second compound 0.00316 µM
  IC50: 0.954 µM
Second compound 0.01 µM
  IC50: 1.51 µM
Second compound 0.0316 µM
  IC50: 2.04 µM
Second compound 0.1 µM
  IC50: 2.18 µM
Second compound 0.316 µM
  IC50: 3.12 µM
Second compound 1 µM
  IC50: 3.86 µM
[1]
  viability, T/C: 102%
[2]
  viability, T/C: 124%
[3]
  viability, T/C: 88.9%
[4]
  viability, T/C: 50%
[5]
  viability, T/C: 39%
[6]
  viability, T/C: 32.6%
[7]
  viability, T/C: 78.6%
[8]
  viability, T/C: 115%
[9]
  viability, T/C: 68.8%
[10]
  viability, T/C: 59.1%
[11]
  viability, T/C: 41.3%
[12]
  viability, T/C: 31.3%
[13]
  viability, T/C: 108%
[14]
  viability, T/C: 113%
[15]
  viability, T/C: 65.1%
[16]
  viability, T/C: 62.8%
[17]
  viability, T/C: 50.1%
[18]
  viability, T/C: 29.6%
[19]
  viability, T/C: 80.6%
[20]
  viability, T/C: 106%
[21]
  viability, T/C: 85.3%
[22]
  viability, T/C: 60.9%
[23]
  viability, T/C: 46.8%
[24]
  viability, T/C: 41%
[25]
  viability, T/C: 60.6%
[26]
  viability, T/C: 113%
[27]
  viability, T/C: 85.7%
[28]
  viability, T/C: 67.1%
[29]
  viability, T/C: 52.8%
[30]
  viability, T/C: 31.2%
[31]
  viability, T/C: 65.5%
[32]
  viability, T/C: 111%
[33]
  viability, T/C: 84.2%
[34]
  viability, T/C: 64.1%
[35]
  viability, T/C: 58.4%
[36]
  viability, T/C: 30%
